Values quoted from earlier work in publication PMC12218921, “An adaptive peptide-binding site in ubiquitin receptor hRpn13 revealed by structural studies” (Nature Communications, 2025).

Test system: hRpn13 F76 arginine substitution
Conditions: cited from earlier work

Substance: ubiquitin
- hRpn13 binding to ubiquitin on arginine substitution of F76: abolishes hRpn13 binding to ubiquitin
